Source: ChEMBL document CHEMBL5338766, “X-ray Crystal Structure-Guided Discovery of Novel Indole Analogues as Colchicine-Binding Site Tubulin Inhibitors with Immune-Potentiating and Antitumor Effects against Melanoma” (J Med Chem, 2023)

Assays:
B16-F10 [1] = assay: Antiproliferative activity against mouse B16-F10 cells assessed as inhibition of cell proliferation incubated for 48 hrs by MTT assay; format: functional, cell-based; conditions: B16-F10, 48 h
HepG2 = assay: Antiproliferative activity against human HepG2 cells assessed as inhibition of cell proliferation incubated for 48 hrs by MTT assay; format: functional, cell-based; conditions: HepG2, 48 h
HeLa = assay: Antiproliferative activity against human HeLa cells assessed as inhibition of cell proliferation incubated for 48 hrs by MTT assay; format: functional, cell-based
MCF7 = assay: Antiproliferative activity against human MCF7 cells assessed as inhibition of cell proliferation incubated for 48 hrs by MTT assay; format: functional, cell-based; conditions: MCF7, 48 h
[2] = Toxicity in C57 mouse implanted with mouse B16-F10 cells assessed as pathological changes in liver at 5 mg/kg, ip administered every day for 14 days by H&E staining based microscopic analysis; format: organism-based; conditions: in vivo, 336 h, time 14 day
[3] = Toxicity in C57 mouse implanted with mouse B16-F10 cells assessed as pathological changes in heart at 5 mg/kg, ip administered every day for 14 days by H&E staining based microscopic analysis; format: organism-based; conditions: in vivo, 336 h, time 14 day
[4] = Resistance index, ratio of IC50 for antiproliferative activity against paclitaxel resistant human A549/TxR cells to IC50 for antiproliferative activity against parental human A549S cells; format: functional
A2780S = assay: Antiproliferative activity against parental human A2780S cells assessed as inhibition of cell proliferation incubated for 48 hrs by MTT assay; format: functional, cell-based
[5] = Antiproliferative activity against paclitaxel resistant human A549/TxR cells assessed as inhibition of cell proliferation incubated for 48 hrs by MTT assay; format: functional, cell-based
B16-F10 [6] = assay: Antitumor activity against mouse B16-F10 cells implanted in C57 mouse assessed as tumor growth inhibition at 5 mg/kg, ip administered every day for 14 days relative to control; format: functional; conditions: B16-F10, 336 h, time 14 day, read-out: TGI
A2780/Taxol = assay: Antiproliferative activity against paclitaxel resistant human A2780/Taxol cells assessed as inhibition of cell proliferation incubated for 48 hrs by MTT assay; format: functional, cell-based
[7] = Resistance index, ratio of IC50 for antiproliferative activity against paclitaxel resistant human A2780/Taxol cells to IC50 for antiproliferative activity against parental human A2780S cells; format: functional
[8] = Toxicity in C57 mouse implanted with mouse B16-F10 cells assessed as pathological changes in kidney at 5 mg/kg, ip administered every day for 14 days by H&E staining based microscopic analysis; format: organism-based; conditions: in vivo, 336 h, time 14 day
[9] = Toxicity in C57 mouse implanted with mouse B16-F10 cells assessed as body weight loss at 5 mg/kg, ip administered every day for 14 days; format: organism-based; conditions: in vivo, 336 h, time 14 day
[10] = Antiproliferative activity against parental human A549S cells assessed as inhibition of cell proliferation incubated for 48 hrs by MTT assay; format: functional, cell-based
B16-F10 [11] = assay: Antitumor immunity in C57 mouse implanted with mouse B16-F10 cells assessed as increase in CD3+ CD8+ cytotoxic T cells in tumor at 5 mg/kg, ip administered every day for 14 days by flow cytometric analysis (reference value: 0.340%); format: functional; conditions: time 14 day
B16-F10 [12] = assay: Antitumor immunity in C57 mouse implanted with mouse B16-F10 cells assessed as increase in CD3+ CD4+ helper T cells in tumor at 5 mg/kg, ip administered every day for 14 days by flow cytometric analysis (reference value: 0.332%); format: functional; conditions: time 14 day

| SMILES | IC50 (B16-F10 [1]) | IC50 (HepG2) | IC50 (HeLa) | IC50 (MCF7) | also measured |
| --- | --- | --- | --- | --- | --- |
| COc1cc(-c2n[nH]c3ccc(-c4ccccc4)nc23)cc(OC)c1OC | 683 nM | 115 nM | 742 nM | 957 nM | – |
| CCn1ccc2cc(-c3nc4c(-c5cc(OC)c(OC)c(OC)c5)nccc4[nH]3)ccc21 | 237 nM | 130 nM | 195 nM | 317 nM | – |
| CC(=O)O[C@H]1C(=O)[C@@]2(C)[C@H]([C@H](OC(=O)c3ccccc3)[C@]3(O)C[C@H](OC(=O)[C@H](O)[C@@H](NC(=O)c4ccccc4)c4ccccc4)C(C)=C1C3(C)C)[C@]1(OC(C)=O)CO[C@@H]1C[C@@H]2O [PACLITAXEL] | – | – | – | – | Activity [2]: Non-Toxic; Activity [3]: Non-Toxic; Ratio IC50 [4]: 135.9; IC50 (A2780S): 2.7 nM; IC50 [5]: 3380 nM; inhibition in vivo at 5 mg/kg (B16-F10 [6]): 70.4%; IC50 (A2780/Taxol): 2020 nM; Ratio IC50 [7]: 746.5; Activity [8]: Non-Toxic; Activity [9]: Non-Toxic; IC50 [10]: 24.9 nM |
| COc1cc2c(c(OC)c1OC)-c1ccc(OC)c(=O)cc1[C@@H](NC(C)=O)CC2 [COLCHICINE] | – | – | – | 22 nM | IC50 (A2780S): 23.2 nM; IC50 [5]: 677 nM; IC50 (A2780/Taxol): 670 nM; IC50 [10]: 104 nM |
| COc1cc(-c2cccc3[nH]c(-c4cccc5c4ccn5C)nc23)cc(OC)c1OC | – | 15 nM | – | – | – |
| COc1ccc(-c2nccc3[nH]c(-c4cccc5c4ccn5C)nc23)cc1OC | 199 nM | 256 nM | 453 nM | 699 nM | – |
| COc1cc(-c2nn(C(=O)OC(C)(C)C)c3cnc(-c4cccc5c4ccn5C)cc23)cc(OC)c1OC | 5170 nM | 4700 nM | 5930 nM | 7660 nM | – |
| CCn1ccc2c(-c3nc4c(-c5cc(OC)c(OC)c(OC)c5)nccc4[nH]3)cccc21 | 18 nM | 11 nM | 29 nM | 22 nM | – |
| COc1cc(-c2nn(C(=O)OC(C)(C)C)c3ccc(-c4cccc5c4ccn5C)nc23)cc(OC)c1OC | 386 nM | 210 nM | 581 nM | 277 nM | – |
| COc1cc(-c2n[nH]c3ccc(-c4ccc(C)cc4)nc23)cc(OC)c1OC | 32 nM | 19 nM | 92 nM | 58 nM | – |
| CCn1ccc2ccc(-c3nc4c(-c5cc(OC)c(OC)c(OC)c5)nccc4[nH]3)cc21 | 631 nM | 509 nM | 818 nM | 602 nM | – |
| COc1cc(OC)cc(-c2nccc3[nH]c(-c4cccc5c4ccn5C)nc23)c1 | 310 nM | 238 nM | 105 nM | 260 nM | – |
| COc1ccc(-c2ccc3[nH]nc(-c4cc(OC)c(OC)c(OC)c4)c3n2)cc1 | 271 nM | 87 nM | 188 nM | 319 nM | – |
| Cc1c(COc2cc3c(cc2Cl)CN(C(C)(C)C(=O)O)C(c2cccc(C#N)c2)O3)cccc1-c1ccccc1 (centres undefined) | – | – | – | – | Activity [2]: Non-Toxic; Activity [3]: Non-Toxic; Activity (B16-F10 [11]): 2.27%; inhibition in vivo at 5 mg/kg (B16-F10 [6]): 48.5%; Activity [8]: Non-Toxic; Activity [9]: Non-Toxic; Activity (B16-F10 [12]): 1.43% |
| Cn1ccc2c(-c3nc4c(-c5ccc6c(c5)OCCO6)nccc4[nH]3)cccc21 | 138 nM | 119 nM | 92 nM | 213 nM | – |
| COc1cc(-c2nn(C(=O)OC(C)(C)C)c3ccc(-c4cccc5c4ccn5C)cc23)cc(OC)c1OC | 492 nM | 356 nM | 677 nM | 350 nM | – |

Second part, led by results:

| IC50 (B16-F10 [1]) | IC50 (HepG2) | IC50 (HeLa) | IC50 (MCF7) | SMILES | also measured |
| --- | --- | --- | --- | --- | --- |
| 197 nM | 82 nM | 154 nM | 135 nM | COc1cc(-c2n[nH]c3cnc(-c4cccc5c4ccn5C)cc23)cc(OC)c1OC | – |
| 1000 nM | 248 nM | 969 nM | 861 nM | COc1cc(-c2n[nH]c3cnc(-c4ccc5c(ccn5C)c4)cc23)cc(OC)c1OC | – |
| 66 nM | 30 nM | 48 nM | 45 nM | COc1cc(-c2n[nH]c3ccc(-c4cccc5c4ccn5C)cc23)cc(OC)c1OC | – |
| 21 nM | 6 nM | 40 nM | 28 nM | COc1cc(-c2n[nH]c3ccc(-c4cccc5c4ccn5C)nc23)cc(OC)c1OC | – |
| 60 nM | 44 nM | 71 nM | 36 nM | COc1cc(-c2nccc3[nH]c(-c4ccc5c(ccn5C)c4)nc23)cc(OC)c1OC | – |
| 43 nM | 16 nM | 48 nM | 35 nM | COc1cc(-c2n[nH]c3ccc(-c4ccc5c(ccn5C)c4)nc23)cc(OC)c1OC | – |
| 33 nM | 18 nM | 45 nM | 30 nM | COc1cc(-c2nccc3[nH]c(-c4ccc5ccn(C)c5c4)nc23)cc(OC)c1OC | – |
| 98 nM | 49 nM | 173 nM | 36 nM | COc1cc(-c2n[nH]c3ccc(-c4ccc5c(ccn5C)c4)cc23)cc(OC)c1OC | – |
